From patent US11439148B2, “Pyrimidine derivatives” (SYNGENTA PARTICIPATIONS AG, priority 2017, dated 2022)
Several values for one entry are separate records, joined by “and”; a condition that tells them apart may be missing. Identical values can stand only once.

System: four weed species (ABUTH, CHEAL, IPOHE, SETVI)
Test: Adjuvant efficacy with fomesafen, glasshouse spray test, average over all species
Type: in vivo
Conditions: fomesafen sodium salt SL, mean over 100 and 200 g/ha, adjuvant 0.2% v/v (none in No Adjuvant rows), 21 days, average of ABUTH
Protocol: (§1) The efficacy of adjuvants 1-12 as adjuvants for the herbicide fomesafen (as the sodium salt) were tested in a glasshouse against four weed species, sown into standard soil in pots and cultivated under controlled conditions in a glasshouse (at 24/18° C. day/night; 16 hours light, 65% humidity). Fomesafen sodium salt was added to the spray tank as a standard SL (soluble concentrate) formulation.
(§2) The spray tests were also carried out using fomesafen in conjunction with adjuvants 1-12. Unless otherwise stated, the adjuvants were added to the spray solution at a rate of 0.2% v/v. All spray solutions also contained 12.5% v/v of iso-Propanol to normalise the retention of the sprays on the hydrophobic plant surfaces. The weed species and their BBCH growth stage at spraying were Abutilon theophrasti (ABUTH; growth stage 12-13), Chenopodium album (CHEAL; growth stage 15), Ipomea hederacea (IPOHE; growth stage 12), and Setaria viridis (SETVI; growth stage 14). Each spray test was replicated three times. The test plants were then grown in a glasshouse under controlled conditions (at 24/18° C. day/night; 16 hours light; 65% humidity) and watered twice a day.
(§3) The efficacy of the herbicide was assessed visually and expressed as a percentage of the leaf area killed. Samples were assessed at a time period of 21 days following application. The results shown in Table 2 below are mean averages over the two rates of fomesafen, the three replicates […].

Compound	Mean % Herbicidal Activity Average over all Species
CCCCCCCCC=CCCCCCCCCOc1cc(OCCOCCOC)ncn1 [Adjuvant 9]	67%
CCCCCCCCCOc1cc(OCCOCCOCCOCCOCCOCCOCCOC)ncn1 [Adjuvant 4]	61%
CCCCCCOc1cc(OCCOCCOCCOCCOCCOCCOCCOCCOCCOCCOC)ncn1 [Adjuvant 2]	68%
CCCCCCCCCCCCOc1cc(OCCOCCOCCOCCOCCOCCOCCOCCOCCOCCOC)ncn1 [Adjuvant 7]	71%
CCCCCCCCCCCCCCCCOc1cc(OCCOCCOCCOCCOCCOCCOCCOCCOCCOCCOC)ncn1 [Adjuvant 8]	60% and 75% and 43%

System: Abutilon theophrasti (ABUTH)
Test: Adjuvant efficacy with nicosulfuron, glasshouse spray test
Type: in vivo
Conditions: nicosulfuron WG, mean over 15 and 60 g/ha and 3 replicates; adjuvant 0.2% v/v (none in No Adjuvant rows); % leaf area killed, 21 days after application; Tests 1-4 separate runs
Protocol: (§4) The efficacy of adjuvants 1-12 as adjuvants for the herbicide nicosulfuron were tested in a glasshouse against four weed species sown into standard soil in pots and cultivated under controlled conditions in a glasshouse (at 24/18° C. day/night; 16 hours light; 65% humidity). Nicosulfuron was added to the spray tank as a standard WG (water dispersible granule) formulation.
(§5) The spray tests were also carried out using nicosulfuron in conjunction with adjuvants 1-12. The adjuvant was added to the spray solution at a rate of 0.2% v/v. All spray solutions also contained 12.5% v/v of iso-Propanol. The weed species and their BBCH growth stage at spraying were Abutilon theophrasti (ABUTH; growth stage 13), Chenopodium album (CHEAL; growth stage 13-14), Digitaria sanguinalis (DIGSA; growth stage 11), and Setaria viridis (SETVI; growth stage 13). Each spray test was replicated three times. The test plants were then grown in a glasshouse under controlled conditions (at 24/18° C. day/night; 16 hours light; 65% humidity) and watered twice a day. The efficacy of the herbicide was assessed visually and expressed as a percentage of the leaf area killed. Samples were assessed at a time period of 21 days following application. The results shown in Table 1 below are mean averages over the two rates of nicosulfuron, and the three replicates.

Compound	Mean % Herbicidal Activity ABUTH
CCCCCCCCC=CCCCCCCCCOc1cc(OCCOCCOC)ncn1 [Adjuvant 9]	57%
CCCCCCCCCOc1cc(OCCOCCOCCOCCOCCOCCOCCOC)ncn1 [Adjuvant 4]	48%
CCCCCCOc1cc(OCCOCCOCCOCCOCCOCCOCCOCCOCCOCCOC)ncn1 [Adjuvant 2]	61%
CCCCCCCCCCCCOc1cc(OCCOCCOCCOCCOCCOCCOCCOCCOCCOCCOC)ncn1 [Adjuvant 7]	59%
CCCCCCCCCCCCCCCCOc1cc(OCCOCCOCCOCCOCCOCCOCCOCCOCCOCCOC)ncn1 [Adjuvant 8]	53% and 66% and 74%

System: Digitaria sanguinalis (DIGSA)
Test: as above
Type: in vivo
Conditions: nicosulfuron WG, mean over 15 and 60 g/ha and 3 replicates; adjuvant 0.2% v/v (none in No Adjuvant rows); % leaf area killed, 21 days after application; Tests 1-4 separate runs
Protocol: as §4, §5

Compound	Mean % Herbicidal Activity DIGSA
CCCCCCCCC=CCCCCCCCCOc1cc(OCCOCCOC)ncn1 [Adjuvant 9]	88%
CCCCCCCCCOc1cc(OCCOCCOCCOCCOCCOCCOCCOC)ncn1 [Adjuvant 4]	70%
CCCCCCOc1cc(OCCOCCOCCOCCOCCOCCOCCOCCOCCOCCOC)ncn1 [Adjuvant 2]	89%
CCCCCCCCCCCCOc1cc(OCCOCCOCCOCCOCCOCCOCCOCCOCCOCCOC)ncn1 [Adjuvant 7]	84%
CCCCCCCCCCCCCCCCOc1cc(OCCOCCOCCOCCOCCOCCOCCOCCOCCOCCOC)ncn1 [Adjuvant 8]	87% and 93% and 89%

System: Setaria viridis (SETVI)
Test: as above
Type: in vivo
Conditions: nicosulfuron WG, mean over 15 and 60 g/ha and 3 replicates; adjuvant 0.2% v/v (none in No Adjuvant rows); % leaf area killed, 21 days after application; Tests 1-4 separate runs
Protocol: as §4, §5

Compound	Mean % Herbicidal Activity SETVI
CCCCCCCCC=CCCCCCCCCOc1cc(OCCOCCOC)ncn1 [Adjuvant 9]	95%
CCCCCCCCCOc1cc(OCCOCCOCCOCCOCCOCCOCCOC)ncn1 [Adjuvant 4]	94%
CCCCCCOc1cc(OCCOCCOCCOCCOCCOCCOCCOCCOCCOCCOC)ncn1 [Adjuvant 2]	97%
CCCCCCCCCCCCOc1cc(OCCOCCOCCOCCOCCOCCOCCOCCOCCOCCOC)ncn1 [Adjuvant 7]	96%
CCCCCCCCCCCCCCCCOc1cc(OCCOCCOCCOCCOCCOCCOCCOCCOCCOCCOC)ncn1 [Adjuvant 8]	96% (2×) and 95%

System: Chenopodium album (CHEAL)
Test: as above
Type: in vivo
Conditions: nicosulfuron WG, mean over 15 and 60 g/ha and 3 replicates; adjuvant 0.2% v/v (none in No Adjuvant rows); % leaf area killed, 21 days after application; Tests 1-4 separate runs
Protocol: as §4, §5

Compound	Mean % Herbicidal Activity CHEAL
CCCCCCCCC=CCCCCCCCCOc1cc(OCCOCCOC)ncn1 [Adjuvant 9]	82%
CCCCCCCCCOc1cc(OCCOCCOCCOCCOCCOCCOCCOC)ncn1 [Adjuvant 4]	78%
CCCCCCOc1cc(OCCOCCOCCOCCOCCOCCOCCOCCOCCOCCOC)ncn1 [Adjuvant 2]	80%
CCCCCCCCCCCCOc1cc(OCCOCCOCCOCCOCCOCCOCCOCCOCCOCCOC)ncn1 [Adjuvant 7]	86%
CCCCCCCCCCCCCCCCOc1cc(OCCOCCOCCOCCOCCOCCOCCOCCOCCOCCOC)ncn1 [Adjuvant 8]	85% (2×) and 83%

System: Abutilon theophrasti (ABUTH)
Test: Adjuvant efficacy with fomesafen, glasshouse spray test
Type: in vivo
Conditions: fomesafen sodium salt SL, mean over 100 and 200 g/ha and 3 replicates; adjuvant 0.2% v/v (none in No Adjuvant rows); % leaf area killed, 21 days after application; Tests 1-4 separate runs
Protocol: as §1, §2, §3

Compound	Mean % Herbicidal Activity ABUTH
CCCCCCCCC=CCCCCCCCCOc1cc(OCCOCCOC)ncn1 [Adjuvant 9]	52%
CCCCCCCCCOc1cc(OCCOCCOCCOCCOCCOCCOCCOC)ncn1 [Adjuvant 4]	51%
CCCCCCOc1cc(OCCOCCOCCOCCOCCOCCOCCOCCOCCOCCOC)ncn1 [Adjuvant 2]	57%
CCCCCCCCCCCCOc1cc(OCCOCCOCCOCCOCCOCCOCCOCCOCCOCCOC)ncn1 [Adjuvant 7]	46%
CCCCCCCCCCCCCCCCOc1cc(OCCOCCOCCOCCOCCOCCOCCOCCOCCOCCOC)ncn1 [Adjuvant 8]	53% and 75% and 36%

System: Setaria viridis (SETVI)
Test: as above
Type: in vivo
Conditions: fomesafen sodium salt SL, mean over 100 and 200 g/ha and 3 replicates; adjuvant 0.2% v/v (none in No Adjuvant rows); % leaf area killed, 21 days after application; Tests 1-4 separate runs
Protocol: as §1, §2, §3

Compound	Mean % Herbicidal Activity SETVI
CCCCCCCCC=CCCCCCCCCOc1cc(OCCOCCOC)ncn1 [Adjuvant 9]	64%
CCCCCCCCCOc1cc(OCCOCCOCCOCCOCCOCCOCCOC)ncn1 [Adjuvant 4]	53%
CCCCCCOc1cc(OCCOCCOCCOCCOCCOCCOCCOCCOCCOCCOC)ncn1 [Adjuvant 2]	53%
CCCCCCCCCCCCOc1cc(OCCOCCOCCOCCOCCOCCOCCOCCOCCOCCOC)ncn1 [Adjuvant 7]	45%
CCCCCCCCCCCCCCCCOc1cc(OCCOCCOCCOCCOCCOCCOCCOCCOCCOCCOC)ncn1 [Adjuvant 8]	17% and 65% and 13%

System: Ipomea hederacea (IPOHE)
Test: as above
Type: in vivo
Conditions: fomesafen sodium salt SL, mean over 100 and 200 g/ha and 3 replicates; adjuvant 0.2% v/v (none in No Adjuvant rows); % leaf area killed, 21 days after application; Tests 1-4 separate runs
Protocol: as §1, §2, §3

Compound	Mean % Herbicidal Activity IPOHE
CCCCCCCCC=CCCCCCCCCOc1cc(OCCOCCOC)ncn1 [Adjuvant 9]	88%
CCCCCCCCCOc1cc(OCCOCCOCCOCCOCCOCCOCCOC)ncn1 [Adjuvant 4]	93%
CCCCCCOc1cc(OCCOCCOCCOCCOCCOCCOCCOCCOCCOCCOC)ncn1 [Adjuvant 2]	95%
CCCCCCCCCCCCOc1cc(OCCOCCOCCOCCOCCOCCOCCOCCOCCOCCOC)ncn1 [Adjuvant 7]	98%
CCCCCCCCCCCCCCCCOc1cc(OCCOCCOCCOCCOCCOCCOCCOCCOCCOCCOC)ncn1 [Adjuvant 8]	92% and 97% and 51%

System: Chenopodium album (CHEAL)
Test: as above
Type: in vivo
Conditions: fomesafen sodium salt SL, mean over 100 and 200 g/ha and 3 replicates; adjuvant 0.2% v/v (none in No Adjuvant rows); % leaf area killed, 21 days after application; Tests 1-4 separate runs
Protocol: as §1, §2, §3

Compound	Mean % Herbicidal Activity CHEAL
CCCCCCCCC=CCCCCCCCCOc1cc(OCCOCCOC)ncn1 [Adjuvant 9]	64%
CCCCCCCCCOc1cc(OCCOCCOCCOCCOCCOCCOCCOC)ncn1 [Adjuvant 4]	45%
CCCCCCOc1cc(OCCOCCOCCOCCOCCOCCOCCOCCOCCOCCOC)ncn1 [Adjuvant 2]	68%
CCCCCCCCCCCCOc1cc(OCCOCCOCCOCCOCCOCCOCCOCCOCCOCCOC)ncn1 [Adjuvant 7]	94%
CCCCCCCCCCCCCCCCOc1cc(OCCOCCOCCOCCOCCOCCOCCOCCOCCOCCOC)ncn1 [Adjuvant 8]	78% and 65% and 73%

System: Polygonum convolvulus (POLCO)
Test: Adjuvant efficacy with mesotrione, glasshouse spray test
Type: in vivo
Conditions: mesotrione SC, mean over 30 and 60 g/ha and 3 replicates; adjuvant 0.2% v/v (none in No Adjuvant rows); % leaf area killed, 21 days after application; Tests 1-4 separate runs
Protocol: (§6) The efficacy of adjuvants 1-12 as an adjuvant for the herbicide mesotrione was tested in a glasshouse against four weed species sown into standard soil in pots and cultivated under controlled conditions in a glasshouse (at 24/18° C. day/night; 16 hours light; 65% humidity). Mesotrione was added to the spray tank as a standard SC (suspension concentrate) formulation.
(§7) The spray tests were also carried out using mesotrione in conjunction with adjuvants 1-12. The adjuvants were added to the spray solution at a rate of 0.2% v/v unless otherwise stated. All spray solutions also contained 10% w/w of iso-Propanol. The weed species and their BBCH growth stage at spraying were Brachiaria platyphylla (BRAPP; growth stage 13-14) or Brachiaria plantaginea (BRAPL; growth stage 13-14), Commelina benghalensis (COMBE; growth stage 13), Digitaria sanguinalis (DIGSA; growth stage 14), and Polygonum convolvulus (POLCO; growth stage 13-14). Each spray test was replicated three times.
(§8) The test plants were then grown in a glasshouse under controlled conditions (at 24/18° C. day/night; 16 hours light; 65% humidity) and watered twice a day. The efficacy of the herbicide was assessed visually and expressed as a percentage of the leaf area killed. Samples were assessed at a time period of 21 days following application. The results shown in Table 3 below are mean averages over the two rates of mesotrione and the three replicates.

Compound	Mean % Herbicidal Activity POLCO
CCCCCCCCC=CCCCCCCCCOc1cc(OCCOCCOC)ncn1 [Adjuvant 9]	92%
CCCCCCCCCOc1cc(OCCOCCOCCOCCOCCOCCOCCOC)ncn1 [Adjuvant 4]	93%
CCCCCCOc1cc(OCCOCCOCCOCCOCCOCCOCCOCCOCCOCCOC)ncn1 [Adjuvant 2]	94%
CCCCCCCCCCCCOc1cc(OCCOCCOCCOCCOCCOCCOCCOCCOCCOCCOC)ncn1 [Adjuvant 7]	70%
CCCCCCCCCCCCCCCCOc1cc(OCCOCCOCCOCCOCCOCCOCCOCCOCCOCCOC)ncn1 [Adjuvant 8]	82% and 92% and 93%

System: Digitaria sanguinalis (DIGSA)
Test: as above
Type: in vivo
Conditions: mesotrione SC, mean over 30 and 60 g/ha and 3 replicates; adjuvant 0.2% v/v (none in No Adjuvant rows); % leaf area killed, 21 days after application; Tests 1-4 separate runs
Protocol: as §6, §7, §8

Compound	Mean % Herbicidal Activity DIGSA
CCCCCCCCC=CCCCCCCCCOc1cc(OCCOCCOC)ncn1 [Adjuvant 9]	82%
CCCCCCCCCOc1cc(OCCOCCOCCOCCOCCOCCOCCOC)ncn1 [Adjuvant 4]	83%
CCCCCCOc1cc(OCCOCCOCCOCCOCCOCCOCCOCCOCCOCCOC)ncn1 [Adjuvant 2]	79%
CCCCCCCCCCCCOc1cc(OCCOCCOCCOCCOCCOCCOCCOCCOCCOCCOC)ncn1 [Adjuvant 7]	80%
CCCCCCCCCCCCCCCCOc1cc(OCCOCCOCCOCCOCCOCCOCCOCCOCCOCCOC)ncn1 [Adjuvant 8]	84% and 81% and 83%
